Measurements: patent US8841325B2, “Immunomodulatory compounds for the restoration of vitamin D sensitivity in vitamin D resistant tumor cells” (Celgene Corporation, priority 2009, dated 2014)

Assays:
Format in all cases: cell-based
[1] = system: MCF-12A cells; test: Cell growth by Sulphorhodamine B (SRB) assay, MCF-12A; conditions: for effect on cell growth: single agent, Thalidomide 0.01-100 μM, CC-4047 and lenalidomide 0.001-10 μM, FIG. 6B
Description: Cells were seeded in 24 wells plates at a density of 10^4 cells per well and allowed to adhere for 24 hours. […] Each treatment was carried out for up to 7 days, but renewed every 2 days. Cell growth was then determined by Sulphorhodamine B (SRB) assay, measuring absorbance at 550 nm.
After 6 days treatment, cells were seeded in 24 well plates at a density of 1×10^4 cells/well. After 24 h cells were treated with reagents or vehicle for up to six days. Cells were treated for up to 6 days with log doses of Thalidomide (0.1 μM up to 100 μM), pomalidomide and lenalidomide (0 μM up to 10 μM). At the end of each experiment, cells were fixed to the bottom of the well by addition of ice-cold 50% w/v trichloroacetic acid (TCA) to give a final concentration of 10% TCA. Plates were incubated at 4° C. for 30 minutes and then washed with distilled water. Plates were allowed to air-dry at room temperature before staining with 0.4% w/v SRB in 1% v/v acetic acid and incubated for 15 minutes on a shaker. The plates were then extensively washed with 1% acetic acid to remove unbound dye and were again allowed to air-dry at room temperature. Incorporated dye was solubilised with 200 μl […] Tris base. 100 μl aliquots were transferred to a 96 well plate and absorbance at 550 nm was determined

[2] = system: MDA-MB-231 cells; test: PARP cleavage assay (Western blot)
Description: Cells were plated in 75 cm^2 flasks and cultured for 6 days with 1 μl/mL DMSO (control) or 1 μM 1-oxo-2-(2,6-dioxopiperidin-3-yl)-4-aminoisoindoline and 100 nM 1,25 D3, each alone or in combination. For each time point, medium was removed and cells were washed with ice-cold PBS. Cells were then lysed with RIPA buffer (1% NP40, 0.5% sodium deoxycholate, 0.1% SDS, PBS) and the lysate was centrifuged at 13000 rpm for 20 minutes at 4° C. The supernatant was collected and an aliquot taken for measuring protein concentration. The protein estimation was determined for each lysate using the Bio-Rad DC Protein Assay Kit according to the manufacturer's instructions. The protein extract was mixed with SDS (1/4), sonicated 10 seconds, and protein concentration was determined by Bradford assay.
SDS-polyacrylamide gel electrophoresis (SDS-PAGE) was run on a Mini Trans-Blot Module apparatus (Bio-Rad). The percentage of polyacrylamide/bis-acrylamide in the resolving gel in this experiment was 12% v/v. The following reagents were used for stacking gel: 0.67 mL 30% acrylamide/bis-acrylamide; 2.7 mL H2O; 0.5 mL 1M trizma; 0.01 mL 10% ammonium persulfate; and 0.04 mL SDS. The following reagents were used for resolving gel: 3.3 mL 30% acrylamide/bis-acrylamide; 4 mL H2O; 2.5 mL 1M trizma; 0.1 mL 10% ammonium persulfate; and 0.1 mL 10% SDS.
Once the resolving gel was prepared, polymerization was initiated by addition of 10 μl N′,N′,N′,N′-teramethylethylene-diamine (TEMED). Lysates were boiled for 5 minutes and chilled on ice then loaded into the stacking gel, with volumes adjusted so that equal amounts of protein were loaded. Rainbow colored markers (Sigma Aldrich) were also added in one well to monitor the electrophoretic solution. Electrophoresis was performed at 40 mA constant current for 1 to 2 hours in running buffer (10×25 mM trizma, 192 mM glycine, 0.1% SDS).
For western blotting, the proteins were transferred from the gel onto Hybond C-Super nitrocellulose membrane (Amersham International, U.K.) in a Mini Trans-Blot apparatus (Bio-Rad) according to the manufacturer's instructions. Transfer was performed at 100 V for 1.5 to 2 hours in transfer buffer (25 mM Tris base, 192 mM glycine, 20% methanol, pH 8.2). The nitrocellulose was blocked after 1 hour with milk solution (PBS 1×, 1% Tween 20, 1% Triton X100, 5% fat-free milk). The membrane was then stained for 1 hour with the primary antibodies Total-PARP and Cleaved-PARP in the milk solution. The membrane was washed with milk solution and stained with secondary antibody (anti-rabbit from Sigma Aldrich) for 1 hour. […] The membrane was then wrapper in cling-film and placed in a cassette and, in the dark, pieces of autography film (GRI) were placed over it and left for the desired time before being put through a developer.
Cells were lysed in RIPA buffer containing 1% NP40, 0.5% sodium deoxycholate, 0.1% SDS, PBS. Equal amounts of protein (20 μg per lane) were subjected to SDS-PAGE and transferred to nitrocellulose membranes. Membranes were blocked with 5% milk in 0.05% Tween-20/TBS and then incubated with the first antibody in 0.5% milk overnight. Membranes were then incubated with the secondary anti-mouse or anti-rabbit horseradish peroxidase conjugated antibody. Bands were visualised using the enhanced chemiluminescence Western blotting detection system (ECL, Amersham, N.J., USA). Densitometric analysis was performed using Adobe Photoshop CS2. Anti-cleaved PARP and anti-total PARP antibodies (New England biolab, Cell Signalling), were used at a dilution of 1/1000 and anti-rabbit (AbCam, UK), at a dilution of 1/5000.
Cells were also treated with 0.1% DMSO as a control. […] Cells treated with 0.1% DMSO were used as a control (day 0). Cell lysates were probed for cleaved-PARP(C-PARP) and total PARP (T-PARP). Data shown are representative of three identical experiments.

[3] = system: MCF-7 cells; test: Cell viability by neutral red assay, MCF-7
Description: Cells were seeded in 24 wells plates at a density of 10^4 cells per well and allowed to adhere for 24 hours. […] The drug was renewed every 2 days. Cell viability was then determined by neutral red assay, measuring absorbance at 550 nm.
After 6 days treatment, cells were seeded into 24 well plates at a density of 1×10^4 cells/wells. After 24 h, cells were treated with reagents or vehicle for up to six days. At the end of the incubation period, medium was removed and cells were incubated with neutral red solution (40 μg/ml in phenol red and serum free DMEM) for 2 h at 37° C. After removal of the neutral red solution, wells were rinsed once with 1 ml 4% formal saline containing 0.5% CaCl2. Plates were inverted on paper towel to drain and 200 μl of elution fluid (1% acetic acid in 50% ethanol) was added. Following incubation at room temperature for 30 min with gentle shaking, absorbance at 550 nm was determined

[4] = single agent: 1 μM lenalidomide or 100 nM 1,25 D3 alone, up to 6 days

SMILES | inhibition of growth ([1]; 100 nM 1,25-D3 alone, up to 6 days, FIG. 7B) [%] | IC50 ([1]; 1,25 D3 alone, read-out: dose giving IC50 inhibition) [nM] | PARP cleavage [2, 4] | PARP cleavage ([2]; single agent: 1 μM lenalidomide or 100 nM 1,25 D3 alone, up to 6 days, listed as vitamin D) | inhibition of viability ([3]; 100 nM 1,25-D3 alone, up to 6 days, FIG. 7A) [%] | sensitivity of cell viability to vitamin D agent treatment ([3]; 1,25 D3 0-100 nM, 7 days, FIG. 1) | effect on cell growth ([1]; up to 6 days) | effect on cell growth ([1]; up to 6 days, listed as lenalidomide) | PARP cleavage ([2]; 1 μM lenalidomide in combination with 100 nM 1,25 D3, up to 6 days) | PARP cleavage ([2]; 1 μM lenalidomide in combination with 100 nM 1,25 D3, up to 6 days, listed as 1-oxo-2-(2,6-dioxopiperidin-3-yl)-4-aminoisoindoline) | PARP cleavage ([2]; single agent: 1 μM lenalidomide or 100 nM 1,25 D3 alone, up to 6 days, listed as 1-oxo-2-(2,6-dioxopiperidin-3-yl)-4-aminoisoindoline) | effect on cell viability ([3]; single agent, up to 6 days, Thalidomide 0.01-100 μM, CC-4047 and lenalidomide 0.001-10 μM, FIG. 6A)
C=C1/C(=C\C=C2/CCC[C@]3(C)[C@@H]([C@H](C)CCCC(C)(C)O)CC[C@@H]23)C[C@@H](O)C[C@@H]1O [1,25-D3, 1α,25-dihydroxyvitamin D3] | 55 | 100 | no effect | no PARP cleavage | 40 | showed sensitivity | – | – | – | – | – | –
Nc1cccc2c1CN(C1CCC(=O)NC1=O)C2=O (stereo not shown) [Lenalidomide, 1-oxo-2-(2,6-dioxopiperidin-3-yl)-4-aminoisoindoline] | – | – | no effect | – | – | – | do not Affect | no effect | starts to be cleaved after 2 days of treatment | significant level of cleaved PARP | no PARP cleavage | do not Affect
